Laboratory results from patent US10391108B2 (BioPharmX, Inc., priority 2015, dated 2019).

System: P. acnes ATCC 6919
Experiment: Minimum Inhibitory Concentration (MIC), broth microdilution
Assay type: cell-based
Conditions: 37° C., 2 days, anaerobic, tested 0.0078 to 16 μg/mL
Procedure: The antimicrobial activity of minocycline was assessed by measuring the Minimum Inhibitory Concentration (MIC). MIC was also assessed for several other materials and combinations and relative MIC values were calculated as multiples of the minocycline MIC value. […] Test material was dissolved in water, diluted by two-fold serial titrations for a total of 11 concentrations. A 96-well plate was prepared by adding 196 μL of broth medium seeded with a strain of P. acnes ATCC 6919 bacteria. A 4 μL aliquot of a test substance dilution was added to each well to bring the total volume in each well to 200 μL. The test substance concentrations tested ranged from 0.0078 to 16 μg/mL. Plates were incubated at 37° C. for 2 days in anaerobic conditions. 96-well plates were read by a TECAN […] F50 ELISA microplate reader (Männedorf, Switzerland) in absorbance mode with a wavelength of 620 nm. Each well was evaluated for whether growth occurred or was inhibited. The lowest concentration for which growth was inhibited was recorded as the MIC. Each test substance was evaluated in duplicate.

## [Cl-].[Cl-].[Mg+2] [Magnesium chloride, magnesium chloride]
  MIC value: did not inhibit growth at any of the concentrations tested
